Like-named read-outs stand apart in the source and are kept apart here.
Experiments:
Type in all cases: cell-based
25(OH)D3-1-hydroxylase = target: T1, 25(OH)D3-1-hydroxylase (Homo sapiens, UniProt O15528); assay: Inhibition of vitamin D3-1-hydroxylase (oxidation of 3H-25(OH)D3, test a)); conditions: for IC50: test a), human keratinocytes, 1 hour, without calcitriol pretreatment
T1 construct: Confluent cultures of human keratinocytes in KGM; endogenous in cells; host or cells: normal human epidermal keratinocytes (adult skin from mammary reduction), generally second passage
T1 sequence (O15528 1-508): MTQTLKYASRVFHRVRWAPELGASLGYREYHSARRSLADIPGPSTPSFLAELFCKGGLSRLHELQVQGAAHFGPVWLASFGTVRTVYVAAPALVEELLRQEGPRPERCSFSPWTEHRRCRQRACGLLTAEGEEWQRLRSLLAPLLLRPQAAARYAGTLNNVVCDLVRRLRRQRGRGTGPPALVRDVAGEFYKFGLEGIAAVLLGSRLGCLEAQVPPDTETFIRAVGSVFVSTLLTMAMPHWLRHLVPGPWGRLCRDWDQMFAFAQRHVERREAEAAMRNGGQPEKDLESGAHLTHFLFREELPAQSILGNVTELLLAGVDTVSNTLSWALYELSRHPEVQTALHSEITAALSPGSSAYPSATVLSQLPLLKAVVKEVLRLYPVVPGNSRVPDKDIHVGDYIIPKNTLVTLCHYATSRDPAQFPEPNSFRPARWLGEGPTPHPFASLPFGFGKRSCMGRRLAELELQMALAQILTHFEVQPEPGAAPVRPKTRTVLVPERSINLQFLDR
Method: Activity of the 1-hydroxylase:
(§1) a) Selective inhibition of Vitamin D3--hydroxylases:
(§2) Confluent cultures of human keratinocytes in KGM at low calcium (0.06 mM) have a high capacity to produce calcitriol via the 1-hydroxylase, however, activities of sequential metabolism via side chain oxidation are almost entirely lacking. Therefore, the inhibition of the 1-hydroxylase in the confluent cultures is determined directly, and the inhibition of sequential metabolism after up-regulation of the respective hydroxylases, e.g. the 24-hydroxylase, is determined by an overnight (17 hours) pretreatment with 10 nM of calcitriol as described by Bikle et al. (1986) (supra).
(§3) The activities of the 1-hydroxylase and of particular steps in the sequential metabolism [e.g. formation of 1,24,25(OH)3 D3+1,24oxo,25(OH)2 D3] which still retain calcitriol-like activities, the formation of 3-epi calcitriol metabolites, of polar metabolites retained in the water phase and those indicative of side-chain cleavage and their inhibition by the test compounds are determined by following the oxidation of ^3 H-25(OH)D3 (Amersham; specific activity about 0.61 mCi/nmole) as follows:
(§4) Confluent human keratinocytes in 1 ml of KGM and in 6-well plates are incubated in duplicate at 37° with ^3 H-25(OH)D3 for 1 hour (1-hydroxylase), 4 hours (sequential metabolism) and for a range of time interals between 1 and 24 hours, without and after preincubation with 10 nM of calcitriol, and without and with test inhibitory compounds added in a concentration range between 0 and 10 μM. Thereafter, the reaction is stopped with 1 ml of methanol per well, the cells are scraped off, transferred to a test tube together with the supernatant and two washings (with 1 ml of methanol and 0.8 ml of water).

human keratinocytes = assay: 3H-Thymidine incorporation into human keratinocytes, antiproliferative effects of vitamin D metabolites in the presence of inhibitors (test b)); conditions: Keratinocyte; test b)
Method: Normal human keratinocytes are isolated from fresh adult skin obtained from mammary reduction and immediately used under sterile conditions. […] These conditions are chosen in order to avoid undefined contributions from vitamin D--metabolites possibly retained in the serum and/or feeder layer. After separation of the epidermis from the dermis with a sterile dermatome the epidermis is incubated in a 0.25% trypsin solution for 45 minutes at 37°. Thereafter the cells are scraped off and put in 50 ml of HBSS containing 10% FCS to block further trypsin digestion and centrifuged at 2000 rpm for 2 minutes. The resulting cell pellet suspended in KGM, a defined serum-free medium at low (0.06 mM) calcium concentration containing 0.1 ng/ml EGF, 5 μg/ml insulin, 0.5 μg/ml hydrocortisone, bovine pituitary extract and antibiotics (gentamycin, amphothericin) gives the primary culture. After 24 hours at 37° in an incubator with carbogen gassing (95% O2 /5% CO2) the unattached cells are removed, the flask washed and provided with fresh KGM. The culture medium is changed then every alternate day and the cells are passaged when they reach 80-90% confluency (usually 6 to 10 days after plating). For passaging old KGM is removed and the attached keratinocytes displaced by a short treatment (5 minutes) with 0.125% of trypsin, then put into HBSS+FCS, centrifuged and eventually resuspended in KGM in such a way that 1 plate of primary culture yields 3 plates first passage cells. In order to expand the final cell number keratinocytes are further cultivated as described above and generally used in their second passage.
^3 H-Thymidine incorporation is measured in 96-well plates as follows: Keratinocytes in 200 μl of KGM at low calcium concentration are plated at an initial density of 10^4 cells per well (second passage) and kept for 24 hours at 37° in an incubator with carbogen gassing (95% O2 /5% CO2). […]
Harvesting is done on a Filtermate 196-Harvester (Packard-Canberra). […] 50 μl of scintillation cocktail (MicroScint O, Packard) are added and ^3 H-activity is counted on a Microplate Scintillation Counter (Topcount, Packard Canberra).
Data are used as means ±SEM (n=3). The IC50 -values for the inhibition of proliferation by the vitamin D--metabolites in the presence of varying concentrations of inhibitors of side chain metabolism and vice versa are assessed by plotting the inverse proliferation rate versus one inhibitor concentration, with the concentration of the other inhibitors kept constant (Dixon Plot). Independent of the mechanism of inhibition the IC50 -values can be read in this plot from the intercept on the x-axis.

[1] = target: T2, 25-hydroxyvitamin D3-hydroxylases which attack the C20-27-side chain of vitamin D3 (Homo sapiens, UniProt Q07973); assay: Inhibition of side chain metabolism / vitamin D3-hydroxylases attacking the C20-27 side chain in calcitriol-pretreated keratinocytes (test a)); conditions: for inhibition of 25-hydroxyvitamin D3-hydroxylases which attack the C20-27 side chain (in words): selectivity versus calcitriol synthesis; for IC50: test a), human keratinocytes, pretreated with 10 nM calcitriol
T2 construct: Confluent human keratinocytes in 1 ml of KGM and in 6-well plates; endogenous in cells; host or cells: normal human epidermal keratinocytes pretreated overnight (16-17 h) with 10 nM calcitriol
T2 sequence (Q07973 36-514): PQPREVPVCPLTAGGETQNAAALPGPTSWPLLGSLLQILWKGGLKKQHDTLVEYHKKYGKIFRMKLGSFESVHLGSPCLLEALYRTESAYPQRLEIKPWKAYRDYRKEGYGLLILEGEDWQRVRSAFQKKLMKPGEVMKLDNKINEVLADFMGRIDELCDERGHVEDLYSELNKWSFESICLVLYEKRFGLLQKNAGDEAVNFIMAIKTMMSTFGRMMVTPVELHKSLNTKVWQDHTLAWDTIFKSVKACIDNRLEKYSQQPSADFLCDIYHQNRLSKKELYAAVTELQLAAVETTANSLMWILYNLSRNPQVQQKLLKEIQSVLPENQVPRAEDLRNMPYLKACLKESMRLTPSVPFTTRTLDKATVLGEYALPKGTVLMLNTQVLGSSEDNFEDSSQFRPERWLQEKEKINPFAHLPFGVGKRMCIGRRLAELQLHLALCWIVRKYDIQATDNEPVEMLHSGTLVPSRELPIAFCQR
Method: This can be determined in confluent cultures of human keratinocytes directly, while for determination of the activity of the hydroxylases attacking the C20-27--side chain a 16 hours pretreatment schedule of the confluent cultures with 1,25(OH)2 D3 (10 nM) has to precede which upregulates these activities (both methods are described in Bikle, D. D. et al., J. Clin. Invest. 78, 557 [1986]).
as §1, §2, §3, §4

[2] = in presence of 1α,25(OH)2 D3, read-out: IC50 as regards the concentration required to double the antiproliferative effect of 1α,25(OH)2 D3
[3] = in presence of 25(OH)D3, read-out: IC50 as regards the concentration required to double the antiproliferative effect of 25(OH)D3
[4] = read-out: IC50 for stabilization of 3-epi 1,25(OH)2 D3 levels
[5] = read-out: IC50 for stabilization of levels of the sum of 1,25(OH)2 D3, 1,24,25(OH)3D3 and 1,24oxo,25(OH)2 D3

| SMILES | interference with calcitriol synthesis via the 25(OH)D3-1-hydroxylase (in words) (25(OH)D3-1-hydroxylase) | IC50 (25(OH)D3-1-hydroxylase) [nM] | IC50 (human keratinocytes; [2]) [nM] | IC50 (human keratinocytes; [3]) [nM] | inhibition of 25-hydroxyvitamin D3-hydroxylases which attack the C20-27 side chain (in words) [1] | IC50 [1, 4] [nM] | IC50 [1, 5] [nM] |
| --- | --- | --- | --- | --- | --- | --- | --- |
| O=C(NC[C@@H](c1ccccc1)n1ccnc1)c1ccc(-c2ccc(Cl)cc2)cc1 [Example 9, N-[4-(4-Chlorophenyl)benzoyl]-2-(1H-imidazol-1-yl)-2(R)-phenyl-1-aminoethane] | without interfering with its synthesis | 620 | 35 | 12 | selective inhibitors | 12 | 19 |
| O=C(NC[C@H](c1ccccc1)n1ccnc1)c1ccc(-c2ccc(Cl)cc2)cc1 [Example 8, N-[4-(4-Chlorophenyl)benzoyl]-2-(1H-imidazol-1-yl)-2(S)-phenyl-1-aminoethane] | without interfering with its synthesis | 530 | 30 | 11 | selective inhibitors | 40 | 45 |
